The source of these data is PubChem BioAssay AID1996.

In brackets after ≈: the same amount, converted by molar mass.

The conditions of the series: buffer; pH 7.4; 200.0 µM.
Molecule `Cc1ccc(-c2nc(Nc3ccc(O)cc3)c3ccccc3n2)cc1` yielded a solubility (kinetic) of 0.9 µg/mL (≈ 2.75 µM). Then `Br.CCC1CC(CSC(=N)N)OC1=O` (stereo unspecified), with > 42.5 µg/mL. Then `O=C(Nc1cccc(C(F)(F)F)c1)c1scc2c1OCCO2`, with < 0.7 µg/mL; and `Cc1cccc(NC(=O)c2cc(Cl)nc3ccccc23)n1`, with 19.9 µg/mL (≈ 66.8 µM). `COc1ccccc1NC(=O)c1ccc(-n2ccnc2)c([N+](=O)[O-])c1`: the solubility (kinetic) was > 50.7 µg/mL.

In the case of `CCN(CC)S(=O)(=O)c1ccc2oc(SCC(=O)NC3CC3)nc2c1`, the solubility (kinetic) is > 57.5 µg/mL.

Turning to `CSCC(=O)N1CCC(CCC(=O)NC2CC2)CC1`, the solubility (kinetic) is > 42.7 µg/mL. Then `CCOc1ccccc1NC(=O)NCc1ccccn1`, with > 40.7 µg/mL. Then `COc1cc(N2CCOCC2)ccc1C=C(C#N)C#N`, with 0.7 µg/mL (≈ 2.6 µM); and `CN1CCN(c2cc3c(cc2F)c(=O)c(C(=O)O)cn3CCF)CC1`, with > 52.7 µg/mL; and `CN(Cc1ccc2ccccc2c1)C(=O)c1ccc(C(F)(F)F)cc1`, with 4.6 µg/mL (≈ 13.4 µM). On to `CC1(C)CC(=O)C2=C(C1)NC(=O)NC2c1ccc([N+](=O)[O-])cc1` (stereo unspecified), for which the solubility (kinetic) was > 47.3 µg/mL.

On to `O=C(O)c1c(C(=O)O)c(-c2ccc(F)cc2)n2c1CCC2`, for which the kinetic solubility was > 43.4 µg/mL. Then `NC(=O)C1CCCN(C(=O)CNC(=O)C23CC4CC(CC(C4)C2)C3)C1` (stereo unspecified), with 38.3 µg/mL (≈ 110 µM); and `O=C(OCC(=O)N1CCCC1=O)c1cc(Cl)ccc1O`, with > 44.7 µg/mL. Then `CCC1(C)NC(=O)N(CC(=O)Nc2cc(C)on2)C1=O` (stereo unspecified), with > 42 µg/mL. Turning to `Cc1noc(C)c1S(=O)(=O)N1CCC(C(=O)c2ccccc2)CC1`, the kinetic solubility came out at 30 µg/mL (≈ 86.1 µM). The molecule `Cc1cccc(NS(=O)(=O)c2ccc(C(=O)N3CCC3)cc2)c1C` had a solubility (kinetic) of 50.8 µg/mL (≈ 147 µM). For `COc1cccc(C2/C(=C(/O)c3ccc4c(c3)CC(C)O4)C(=O)C(=O)N2CC2CCCO2)c1` (stereo unspecified), the kinetic solubility was 64.7 µg/mL (≈ 144 µM). To `Cc1onc(-c2ccccc2)c1CNC(=O)Nc1cccc(Cl)c1` belongs 1.8 µg/mL (≈ 5.27 µM); to `Cc1ccc(N2C(=O)C3ON(c4ccccc4)C(CC(C)C)C3C2=O)cc1` (stereo unspecified), 11.6 µg/mL (≈ 31.8 µM); to `COc1ccc2oc(C(=O)NC(C)c3ccccn3)c(C)c2c1` (stereo unspecified), > 46.6 µg/mL. As for `CN(C(=O)c1ccncc1)C1CCCN(Cc2ccccc2F)C1` (stereo unspecified), the solubility (kinetic) was > 49.1 µg/mL. To `Cc1cc(C)nc(/N=C(\N)N2CCc3ccccc32)n1` belongs 37.1 µg/mL (≈ 139 µM); to `CCc1cc(C(=O)c2ccccc2)c(N)s1`, 16.6 µg/mL (≈ 71.8 µM). Molecule `Cl.Clc1ccc(NCc2ccsc2)cc1` displayed a kinetic solubility of 2.7 µg/mL. Then `O=C1N=C(N2CCCCC2)S/C1=C\c1ccncc1`, with > 41 µg/mL; and `O=C(c1cc(COc2ccc(F)cc2F)on1)N1CCSCC1`, with 35.8 µg/mL (≈ 105 µM); and `CC1CCCCN1C(=S)NC(=O)c1ccccc1` (stereo unspecified), with > 39.4 µg/mL. To `N/C(Cc1ccc([N+](=O)[O-])cc1)=N\OC(=O)c1ccco1` belongs 18 µg/mL (≈ 62.2 µM).

`COc1ccc(C)cc1NC(=O)COC(=O)c1ccc([N+](=O)[O-])o1` yielded a solubility (kinetic) of 3.4 µg/mL (≈ 10.2 µM). `O=C(O)c1ccccc1Nc1ccc2nonc2c1[N+](=O)[O-]`: the kinetic solubility is > 45 µg/mL.

As for `CCOC(=O)CN1C(=O)CCSc2ccc(Cl)cc21`, the kinetic solubility was > 45 µg/mL. To `C/C(=N\O)C(C)(C)Nc1ccc(Br)cc1` belongs > 40.7 µg/mL; to `CC(C)(C)C1CCc2c(sc3nc(SCC(=O)O)nc(N)c23)C1` (stereo unspecified), 39.4 µg/mL (≈ 112 µM). Then `CC(=O)N1CCN(C(=O)c2ccc(Cl)c(S(=O)(=O)N3CCCC3)c2)CC1`, with > 60 µg/mL; and `Nc1ccccc1N=c1ssnc1Cl`, with > 36.6 µg/mL; and `Cc1ccccc1-c1nc2ccc(Cl)cc2c(=O)n1O`, with > 43 µg/mL. To `Cc1ccc2nc(NC(=O)c3ccc(Br)o3)sc2c1` belongs < 0.4 µg/mL; to `COc1cc(C(=O)OCc2cc(=O)n3ccsc3n2)ccc1OC(C)C`, 5.3 µg/mL (≈ 14.2 µM); to `OC1C2CN3CN(C2)CC1(c1ccccc1)C3` (stereo unspecified), > 34.5 µg/mL.

`CCn1cc(CCC(=O)NC(C)c2ccccc2)c2ccccc21` (stereo unspecified) had a solubility (kinetic) of 7.4 µg/mL (≈ 23.1 µM). To `Cn1c(=O)c2c(nc(NN=C3CCCC3)n2C)n(C)c1=O` belongs > 43.5 µg/mL; to `Cn1c(N)c(C(=O)COC(=O)C2CCCN2C(=O)c2cccs2)c(=O)n(C)c1=O` (stereo unspecified), 56.8 µg/mL (≈ 135 µM). To `Cc1[nH]c2ccccc2c1C(c1ccncc1)N1CCC(C)CC1` (stereo unspecified) belongs > 47.9 µg/mL; to `CCCn1c(=N)n(CC(O)COc2ccc(C)cc2)c2ccccc21.Cl` (stereo unspecified), > 56.4 µg/mL. To `Oc1ccc(-c2csc(Nc3ccccn3)n2)c(O)c1` belongs 4.4 µg/mL (≈ 15.4 µM). For `CC(C)S(=O)(=O)c1csc(C(=O)Nc2ccc(F)cc2)c1N`, the kinetic solubility came to 13.6 µg/mL (≈ 39.7 µM). On to `CCn1c(N2CCN(C(=O)c3ccco3)CC2)nc2ccccc21`, for which the solubility (kinetic) came to 35.8 µg/mL (≈ 110 µM). Then `O=C(CN1CCOCC1)Nc1c(Cl)cc(Cl)cc1Cl`, with > 48.5 µg/mL; and `COC(=O)c1cc(C(=O)OC)n(Cc2ccc(C)cc2)c1C`, with 28.9 µg/mL (≈ 95.9 µM).

By solubility (kinetic) is commonly meant solubility judged after dilution from a stock solution rather than from solid.
